Experimental data from the supplement of paper PMC10627819.

Tests used:
Assay in all cases: fitness (endpoint OD595 vs no drug) (fraction); higher = more growth
S. aureus Newman = system: S. aureus Newman
How it was run: (§1)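 Plates with 384 wells were inoculated at OD595 0.01 using 30 µl of TSB, LB Lennox or CY, or 55 µl for S. pneumoniae. Incubation was at 37 °C, with OD595 measured every 30 min for 14 h. Fitness is the stationary-phase transition optical density over the robust mean of no-drug control wells, after first-reading background subtraction; it is capped at 1.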

S. aureus DSM 20231 = system: S. aureus DSM 20231
How it was run: as §1

S. pneumoniae D39V = system: S. pneumoniae D39V
How it was run: as §1

[1] = first compound 0.0625 µg/mL, partner 0.0156 µg/mL
[2] = first compound 0.0625 µg/mL, partner 0.0312 µg/mL
[3] = first compound 0.0625 µg/mL, partner 0.0625 µg/mL
[4] = first compound 0.125 µg/mL, partner 0.0156 µg/mL
[5] = first compound 0.125 µg/mL, partner 0.0312 µg/mL
[6] = first compound 0.125 µg/mL, partner 0.0625 µg/mL
[7] = first compound 0.25 µg/mL, partner 0.0312 µg/mL

SMILES: CC1(C)S[C@@H]2[C@H](NC(=O)[C@H](N)c3ccc(O)cc3)C(=O)N2[C@H]1C(=O)O [Amoxicillin] + CC1(C)S[C@@H]2[C@H](NC(=O)Cc3ccccc3)C(=O)N2[C@H]1C(=O)O [Penicillin G]
- fitness (S. aureus Newman; first compound 0.0625 µg/mL, partner 0.0195 µg/mL): 0.845
- fitness (S. aureus Newman; first compound 0.0625 µg/mL, partner 0.039 µg/mL): 0.878
- fitness (S. aureus Newman; first compound 0.0625 µg/mL, partner 0.078 µg/mL): 0.796
- fitness (S. aureus Newman; first compound 0.125 µg/mL, partner 0.0195 µg/mL): 0.855
- fitness (S. aureus Newman; first compound 0.125 µg/mL, partner 0.039 µg/mL): 0.833
- fitness (S. aureus Newman; first compound 0.125 µg/mL, partner 0.078 µg/mL): 0.801
- fitness (S. aureus Newman; first compound 0.25 µg/mL, partner 0.039 µg/mL): 0.797
- fitness (S. aureus Newman; first compound 0.25 µg/mL, partner 0.078 µg/mL): 0.807

SMILES: CC1(C)S[C@@H]2[C@H](NC(=O)[C@H](N)c3ccc(O)cc3)C(=O)N2[C@H]1C(=O)O [Amoxicillin] + CC(=O)Oc1ccccc1C(=O)O [Acetylsalicylic acid]
- fitness (S. aureus DSM 20231; first compound 0.0625 µg/mL, partner 250 µg/mL): 0.511
- fitness (S. aureus DSM 20231; first compound 0.0625 µg/mL, partner 500 µg/mL): 0.449
- fitness (S. aureus DSM 20231; first compound 0.0625 µg/mL, partner 1000 µg/mL): 0.144
- fitness (S. aureus DSM 20231; first compound 0.125 µg/mL, partner 250 µg/mL): 0.448
- fitness (S. aureus DSM 20231; first compound 0.125 µg/mL, partner 500 µg/mL): 0.395
- fitness (S. aureus DSM 20231; first compound 0.125 µg/mL, partner 1000 µg/mL): 0.284
- fitness (S. aureus DSM 20231; first compound 0.25 µg/mL, partner 250 µg/mL): 0.0498
- fitness (S. aureus DSM 20231; first compound 0.25 µg/mL, partner 500 µg/mL): 0.05
- fitness (S. aureus DSM 20231; first compound 0.25 µg/mL, partner 1000 µg/mL): 0.0643
- fitness (S. aureus DSM 20231; first compound 0.5 µg/mL, partner 250 µg/mL): 0.0014
- fitness (S. aureus DSM 20231; first compound 0.5 µg/mL, partner 500 µg/mL): 0.0115
- fitness (S. aureus DSM 20231; first compound 0.5 µg/mL, partner 1000 µg/mL): 0.0095
- fitness (S. pneumoniae D39V; first compound 0.0008 µg/mL, partner 250 µg/mL): 0.958
- fitness (S. pneumoniae D39V; first compound 0.0008 µg/mL, partner 500 µg/mL): 0.939
- fitness (S. pneumoniae D39V; first compound 0.0008 µg/mL, partner 1000 µg/mL): 0.774
- fitness (S. pneumoniae D39V; first compound 0.0015 µg/mL, partner 250 µg/mL): 0.975
- fitness (S. pneumoniae D39V; first compound 0.0015 µg/mL, partner 500 µg/mL): 0.923
- fitness (S. pneumoniae D39V; first compound 0.0015 µg/mL, partner 1000 µg/mL): 0.896
- fitness (S. pneumoniae D39V; first compound 0.003 µg/mL, partner 250 µg/mL): 0.919
- fitness (S. pneumoniae D39V; first compound 0.003 µg/mL, partner 500 µg/mL): 0.905
- fitness (S. pneumoniae D39V; first compound 0.003 µg/mL, partner 1000 µg/mL): 0.865
- fitness (S. pneumoniae D39V; first compound 0.006 µg/mL, partner 250 µg/mL, one replicate): 0.465
- fitness (S. pneumoniae D39V; first compound 0.006 µg/mL, partner 500 µg/mL, one replicate): 0.507
- fitness (S. pneumoniae D39V; first compound 0.006 µg/mL, partner 1000 µg/mL, one replicate): 0.483

SMILES: CC1(C)S[C@@H]2[C@H](NC(=O)[C@H](N)c3ccc(O)cc3)C(=O)N2[C@H]1C(=O)O [Amoxicillin] + CN(C)[C@@H]1C(O)=C(C(N)=O)C(=O)[C@@]2(O)C(O)=C3C(=O)c4c(O)ccc(Cl)c4[C@@](C)(O)[C@H]3C[C@@H]12 [Chlortetracycline]
- fitness (S. aureus DSM 20231; first compound 0.0625 µg/mL, partner 0.012 µg/mL): 0.421
- fitness (S. aureus DSM 20231; first compound 0.0625 µg/mL, partner 0.024 µg/mL): 0.169
- fitness (S. aureus DSM 20231; first compound 0.0625 µg/mL, partner 0.048 µg/mL): 0.0806
- fitness (S. aureus DSM 20231; first compound 0.125 µg/mL, partner 0.006 µg/mL, one replicate): 0.402
- fitness (S. aureus DSM 20231; first compound 0.125 µg/mL, partner 0.012 µg/mL): 0.236
- fitness (S. aureus DSM 20231; first compound 0.125 µg/mL, partner 0.024 µg/mL): 0.127
- fitness (S. aureus DSM 20231; first compound 0.125 µg/mL, partner 0.048 µg/mL): 0.0782
- fitness (S. aureus DSM 20231; first compound 0.25 µg/mL, partner 0.006 µg/mL, one replicate): 0.052
- fitness (S. aureus DSM 20231; first compound 0.25 µg/mL, partner 0.012 µg/mL): 0.0422
- fitness (S. aureus DSM 20231; first compound 0.25 µg/mL, partner 0.024 µg/mL): 0.0199
- fitness (S. aureus DSM 20231; first compound 0.25 µg/mL, partner 0.048 µg/mL): 0.0289
- fitness (S. aureus DSM 20231; first compound 0.5 µg/mL, partner 0.006 µg/mL, one replicate): 0
- fitness (S. aureus DSM 20231; first compound 0.5 µg/mL, partner 0.012 µg/mL): 0.0037
- fitness (S. aureus DSM 20231; first compound 0.5 µg/mL, partner 0.024 µg/mL): 0.0085
- fitness (S. aureus DSM 20231; first compound 0.5 µg/mL, partner 0.048 µg/mL): 0.0227
- fitness (S. pneumoniae D39V; first compound 0.0008 µg/mL, partner 0.012 µg/mL, one replicate): 0.904
- fitness (S. pneumoniae D39V; first compound 0.0008 µg/mL, partner 0.024 µg/mL, one replicate): 0.844
- fitness (S. pneumoniae D39V; first compound 0.0008 µg/mL, partner 0.048 µg/mL, one replicate): 0.853
- fitness (S. pneumoniae D39V; first compound 0.0008 µg/mL, partner 0.375 µg/mL): 0.0877
- fitness (S. pneumoniae D39V; first compound 0.0008 µg/mL, partner 0.75 µg/mL): 0.0924
- fitness (S. pneumoniae D39V; first compound 0.0008 µg/mL, partner 1.5 µg/mL): 0.0983
- fitness (S. pneumoniae D39V; first compound 0.0015 µg/mL, partner 0.012 µg/mL): 0.845
- fitness (S. pneumoniae D39V; first compound 0.0015 µg/mL, partner 0.024 µg/mL): 0.854
- fitness (S. pneumoniae D39V; first compound 0.0015 µg/mL, partner 0.048 µg/mL): 0.887
- fitness (S. pneumoniae D39V; first compound 0.0015 µg/mL, partner 0.375 µg/mL): 0.119
- fitness (S. pneumoniae D39V; first compound 0.0015 µg/mL, partner 0.75 µg/mL): 0.0947
- fitness (S. pneumoniae D39V; first compound 0.0015 µg/mL, partner 1.5 µg/mL): 0.123
- fitness (S. pneumoniae D39V; first compound 0.003 µg/mL, partner 0.012 µg/mL): 0.808
- fitness (S. pneumoniae D39V; first compound 0.003 µg/mL, partner 0.024 µg/mL): 0.804
- fitness (S. pneumoniae D39V; first compound 0.003 µg/mL, partner 0.048 µg/mL): 0.85
- fitness (S. pneumoniae D39V; first compound 0.003 µg/mL, partner 0.375 µg/mL): 0.0652
- fitness (S. pneumoniae D39V; first compound 0.003 µg/mL, partner 0.75 µg/mL): 0.045
- fitness (S. pneumoniae D39V; first compound 0.003 µg/mL, partner 1.5 µg/mL): 0.0882
- fitness (S. pneumoniae D39V; first compound 0.006 µg/mL, partner 0.012 µg/mL, one replicate): 0.482
- fitness (S. pneumoniae D39V; first compound 0.006 µg/mL, partner 0.024 µg/mL, one replicate): 0.45
- fitness (S. pneumoniae D39V; first compound 0.006 µg/mL, partner 0.048 µg/mL, one replicate): 0.378

SMILES: CC1(C)S[C@@H]2[C@H](NC(=O)[C@H](N)c3ccc(O)cc3)C(=O)N2[C@H]1C(=O)O [Amoxicillin] + CO[C@@]12[C@H](COC(N)=O)C3=C(C(=O)C(C)=C(N)C3=O)N1C[C@@H]1N[C@@H]12 [Mitomycin C]
- fitness (S. aureus DSM 20231; [1]): 0.522
- fitness (S. aureus DSM 20231; [2]): 0.467
- fitness (S. aureus DSM 20231; [3]): 0.31
- fitness (S. aureus DSM 20231; [4]): 0.359
- fitness (S. aureus DSM 20231; [5]): 0.226
- fitness (S. aureus DSM 20231; [6]): 0.0925
- fitness (S. aureus DSM 20231; first compound 0.25 µg/mL, partner 0.0156 µg/mL): 0.0215
- fitness (S. aureus DSM 20231; [7]): 0.0317
- fitness (S. aureus DSM 20231; first compound 0.25 µg/mL, partner 0.0625 µg/mL): 0.0251
- fitness (S. aureus DSM 20231; first compound 0.5 µg/mL, partner 0.0156 µg/mL): 0.0035
- fitness (S. aureus DSM 20231; first compound 0.5 µg/mL, partner 0.0312 µg/mL): 0.0009
- fitness (S. aureus DSM 20231; first compound 0.5 µg/mL, partner 0.0625 µg/mL): 0.0008
- fitness (S. aureus Newman; [1]): 0.67
- fitness (S. aureus Newman; [2]): 0.646
- fitness (S. aureus Newman; [3]): 0.502
- fitness (S. aureus Newman; [4]): 0.714
- fitness (S. aureus Newman; [5]): 0.649
- fitness (S. aureus Newman; [6]): 0.465
- fitness (S. aureus Newman; [7]): 0.627
- fitness (S. pneumoniae D39V; first compound 0.0008 µg/mL, partner 0.001075 µg/mL): ≥ 1
- fitness (S. pneumoniae D39V; first compound 0.0008 µg/mL, partner 0.002 µg/mL, one replicate): 0.785
- fitness (S. pneumoniae D39V; first compound 0.0008 µg/mL, partner 0.00215 µg/mL): 0.895
- fitness (S. pneumoniae D39V; first compound 0.0008 µg/mL, partner 0.004 µg/mL, one replicate): 0.79
- fitness (S. pneumoniae D39V; first compound 0.0008 µg/mL, partner 0.0043 µg/mL): 0.799
- fitness (S. pneumoniae D39V; first compound 0.0008 µg/mL, partner 0.008 µg/mL, one replicate): 0.739
- fitness (S. pneumoniae D39V; first compound 0.0015 µg/mL, partner 0.001075 µg/mL): 0.994
- fitness (S. pneumoniae D39V; first compound 0.0015 µg/mL, partner 0.002 µg/mL): 0.778
- fitness (S. pneumoniae D39V; first compound 0.0015 µg/mL, partner 0.00215 µg/mL): 0.876
- fitness (S. pneumoniae D39V; first compound 0.0015 µg/mL, partner 0.004 µg/mL): 0.836
- fitness (S. pneumoniae D39V; first compound 0.0015 µg/mL, partner 0.0043 µg/mL): 0.816
- fitness (S. pneumoniae D39V; first compound 0.0015 µg/mL, partner 0.008 µg/mL): 0.674
- fitness (S. pneumoniae D39V; first compound 0.003 µg/mL, partner 0.001075 µg/mL): 0.938
- fitness (S. pneumoniae D39V; first compound 0.003 µg/mL, partner 0.002 µg/mL): 0.702
- fitness (S. pneumoniae D39V; first compound 0.003 µg/mL, partner 0.00215 µg/mL): 0.832
- fitness (S. pneumoniae D39V; first compound 0.003 µg/mL, partner 0.004 µg/mL): 0.728
- fitness (S. pneumoniae D39V; first compound 0.003 µg/mL, partner 0.0043 µg/mL): 0.761
- fitness (S. pneumoniae D39V; first compound 0.003 µg/mL, partner 0.008 µg/mL): 0.617
- fitness (S. pneumoniae D39V; first compound 0.006 µg/mL, partner 0.002 µg/mL, one replicate): 0.269
- fitness (S. pneumoniae D39V; first compound 0.006 µg/mL, partner 0.004 µg/mL, one replicate): 0.349
- fitness (S. pneumoniae D39V; first compound 0.006 µg/mL, partner 0.008 µg/mL, one replicate): 0.17
